Laboratory results: patent US20240358021A1, “COMPOSITION COMPRISING POTASSIUM BICARBONATE AND USE THEREOF FOR TREATING AND/OR PROTECTING CROPS” (SCEA DU CHATEAU MONTROSE, priority 2021, published 2024)

Tests used:
[1] = system: downy mildew (P. viticola) strains PV221, PV413-1, PV1538-1; test: In vitro efficacy test on vine leaf discs (Example 2); assay type: cell-based, Plasmopara viticola; conditions: mean over downy mildew strains; Example 2 method
[2] = system: downy mildew, powdery mildew and vine rot

Structure (SMILES) | Mean IC50 (CI 50) [1] [µg/mL] | Mean MIC (CMI) [1] [µg/mL] | effect on phytopathogens, in words [2]
O=C([O-])O.[Na+] [NaHCO3, sodium bicarbonate] | 1850 | 10000 | –
O=C([O-])O.[K+] [KHCO3, potassium bicarbonate] | 1000 | 5600 | significant
